Data taken from US20180360767A1, “BIOCOMPATIBLE PARTICLES AND METHODS OF MAKING AND USE THEREOF” (priority 2015, published 2018).

Key:
[1] = test system: doxorubicin-resistant HeLa cells; assay: In vitro cytotoxicity on doxorubicin-resistant cells; type: cell-based; conditions: even at a concentration of 5 mg L^−1
Experimental: Next, the cytotoxicity of doxorubicin-loaded nanospheres towards HeLa cells was evaluated with 3-(4, 5-dimethylthiazol-2-yl)-2, 5-diphenyltetrazolium bromide (MTT) assay. HeLa cells (1×10^4 cells per well) were seeded in the 96-well plates. After culture for 24 h, the cells were exposed to the doxorubicin solution and doxorubicin-loaded liquid metal nanoparticles with different concentrations of doxorubicin for 24 h, followed by adding 20 μl of the MTT solution (5 mg mL^−1). After 4 h of incubation, the medium was removed, and the cells were mixed with 150 μl of dimethyl sulfoxide. The absorbance was measured at a test wavelength of 570 nm and a reference wavelength of 630 nm by a microplate reader (Infinite M200 PRO, Tecan).
Next, the in vitro cytotoxicity of doxorubicin loaded ligand-capped liquid metal nanoparticles towards doxorubicin-resistant HeLa cells was investigated.

in vivo = conditions: mouse, iv, 2 mg/kg
[2] = Pharmacokinetics, doxorubicin concentration in blood plasma after intravenous injection; conditions: mouse, 2 mg/kg

- Cmax (in vivo): 1450 ± 60 ng/mL
- MRT [2]: 2.8 ± 0.61 h
- half-life [2]: 1.11 ± 0.02 h
Structure (SMILES): COc1cccc2c1C(=O)c1c(O)c3c(c(O)c1C2=O)C[C@@](O)(C(=O)CO)C[C@@H]3O[C@H]1C[C@H](N)[C@H](O)[C@H](C)O1 [Doxorubicin]
- cytotoxicity [1]: did not show any obvious cytotoxicity
